Assay results: ChEMBL document CHEMBL3045898, “Antioxidant phenolic compounds and flavonoids of Mitragyna rotundifolia (Roxb.) Kuntze in vitro” (Med Chem Res, 2010)
In brackets after ≈: the same amount, converted by molar mass.

Assays:
[1] = Antioxidant activity assessed as inhibition of ABTS radical production after 10 min by spectrophotometric analysis; assay type: functional
[2] = tested on: Radical scavenging activity; assay: Antioxidant activity assessed as inhibition of DPPH radical production after 30 min by spectrophotometric analysis; assay type: functional

| Compound | IC50 [1] | IC50 [2] |
| --- | --- | --- |
| O=C(O)c1ccc(O)c(O)c1 [PROTOCATECHUIC ACID] | 2.47 µg/mL (≈ 16 µM) | ND(Insoluble) |
| O=C(O)/C=C/c1ccc(O)c(O)c1 [CAFFEIC ACID] | 1.54 µg/mL (≈ 8.55 µM) | 1.8 µg/mL (≈ 9.99 µM) |
| O=c1c(O)c(-c2ccc(O)cc2)oc2cc(O)cc(O)c12 [KAEMPFEROL] | 1.03 µg/mL (≈ 3.6 µM) | 2.51 µg/mL (≈ 8.77 µM) |
| COc1c(O)cc([C@H]2Oc3cc(O)cc(O)c3C[C@@H]2O)cc1O [4'-O-METHYL-GALLOCATECHIN] | 0.78 µg/mL (≈ 2.44 µM) | 2.57 µg/mL (≈ 8.02 µM) |

Next, values leading:

| IC50 [1] | IC50 [2] | Compound |
| --- | --- | --- |
| 1.83 µg/mL (≈ 6.3 µM) | 1.61 µg/mL (≈ 5.55 µM) | Oc1cc(O)c2c(c1)O[C@H](c1ccc(O)c(O)c1)[C@H](O)C2 [(-)-EPICATECHIN] |
| 4.555 µg/mL (≈ 20.7 µM) | 18.79 µg/mL (≈ 85.3 µM) | Cc1cc(C(C)(C)C)c(O)c(C(C)(C)C)c1 [BUTYLATED HYDROXYTOLUENE] |
| 0.56 µg/mL (≈ 1.93 µM) | 1.4 µg/mL (≈ 4.82 µM) | Oc1cc(O)c2c(c1)O[C@H](c1ccc(O)c(O)c1)[C@@H](O)C2 [CIANIDANOL] |
| 0.885 µg/mL (≈ 4.17 µM) | 0.94 µg/mL (≈ 4.43 µM) | CCCOC(=O)c1cc(O)c(O)c(O)c1 [PROPYL GALLATE] |
